“And” between values parts separate entries of the source, which are not always exact repeats. Equal entries are not always repeated. Where two headings read alike, the source gives them in different places.
Columns and labels:
LNCap = experiment: WST-1 cell viability, prostate cancer cell line LNCap; format: cell-based; conditions: Homo sapiens, 72 h
Method: (§1) The cell numbers were counted and reseed as 2×10^6 in culture plate/flask. Then, the culture medium were added to a volume of 10 ml, and the cells were cultured for 2-3 days. Then, the cells were suspended for loading into 96-well plates. The number of cells was 3000 and the volume of the culture medium was 100 μl each well.
(§2) Removing the original culture medium from 96-well plate. Then add 100 μl of commercially drug at a concentration of 10 μM per well. After 72 hours, add the diluted WST-1 reagent to the well with 100 μl/well, and the diluted WST-1 reagent was acquired from the dilution of 9:1 medium and WST-1 stock reagent. Finally, the total volume of each well was 200 μl/well. Culture the 96-well plate at 37° C. for 30 to 90 minutes. Detecting and calculate the survival rate of each cancer cells with an ELISA reader at OD450 nm.

[1] = WST-1 cell viability, normal kidney cell line HEK293; format: cell-based; conditions: human, HEK293 normal kidney cells
Method: as §1, §2

[2] = system: HeLa (CervixAdenocarcinoma); experiment: WST-1 cell viability, cervical cancer cell line HeLa; format: cell-based; conditions: Homo sapiens, 72 h
Method: as §1, §2

[3] = WST-1 cell viability, normal pulmonary epithelial cell line BEAS-2B; format: cell-based; conditions: human, BEAS-2B normal bronchial (pulmonary) epithelial cells
Source text: Subculture the different types of cancer cells.

[4] = system: BCC (basal cell carcinoma); experiment: WST-1 cell viability, skin cancer cell line BCC; format: cell-based; conditions: 72 h
Method: as §1, §2

[5] = system: gastric cancer cells (AGS); experiment: Animal model test of gastric cancer, tumor size; format: in vivo, mice
Method: In this invention, the female mice were (BALB/cAnN.Cg-Foxn1^nu/CrlNarl) purchased from National Laboratory Animal Center (Taiwan). The weight of the mice were 21±1 g. These mice were subcutaneously injected with gastric cancer cells (AGS) and then put these mice into different cage sat random. The drug test experiment was divided into three groups, include “control group”, “low dose group (100 mg/kg/day)”, and “high dose group (200 mg/kg/day)”. These mice were then injected test drug intraperitoneally once daily […]. The tumor sizes and body weight were measured twice a week. The tumor sizes were measured and calculated by formula: (L×W^2)/2. L represents the tumor longest length. W represents the tumor shortest diameter.

[6] = average of 4 tests, read-out: survival rate (inhibition effect), Average
[7] = 100 mg/kg/day i.p., Fifth measurement
[8] = 100 mg/kg/day i.p., Fifth measurement, mice A, B, C
[9] = 100 mg/kg/day i.p., First measurement
[10] = 100 mg/kg/day i.p., First measurement, mice A, B, C
[11] = 100 mg/kg/day i.p., Fourth measurement
[12] = 100 mg/kg/day i.p., Fourth measurement, mice A, B, C
[13] = 100 mg/kg/day i.p., Second measurement
[14] = 100 mg/kg/day i.p., Second measurement, mice A, B, C
[15] = 100 mg/kg/day i.p., Third measurement
[16] = 100 mg/kg/day i.p., Third measurement, mice A, B, C
[17] = 200 mg/kg/day i.p., Fifth measurement
[18] = 200 mg/kg/day i.p., Fifth measurement, mice A, B, C
[19] = 200 mg/kg/day i.p., First measurement
[20] = 200 mg/kg/day i.p., First measurement, mice A, B, C
[21] = 200 mg/kg/day i.p., Fourth measurement
[22] = 200 mg/kg/day i.p., Fourth measurement, mice A, B, C
[23] = 200 mg/kg/day i.p., Second measurement
[24] = 200 mg/kg/day i.p., Second measurement, mice A, B, C
[25] = 200 mg/kg/day i.p., Third measurement

## Fc1ccc([C@@H]2CCNC[C@H]2COc2ccc3c(c2)OCO3)cc1 [Paroxetine]
LNCap; [6]
  viability at 10 µM: 71.7%
LNCap; run LNCap-1-10 min, read-out: survival rate (inhibition effect)
  viability at 10 µM: 65.9%
LNCap; run LNCap-2-20 min, read-out: survival rate (inhibition effect)
  viability at 10 µM: 61.7%
LNCap; run LNCap-3-20 min, read-out: survival rate (inhibition effect)
  viability at 10 µM: 80.9%
LNCap; run LNCap-4-20 min, read-out: survival rate (inhibition effect)
  viability at 10 µM: 78.3%
[1]; HEK293, average of 4 tests, read-out: survival rate (inhibition effect), Average
  viability at 72 h, 10 µM: 71.4%
[1]; HEK293, run 0602-30 min, read-out: survival rate (inhibition effect)
  viability at 72 h, 10 µM: 64.9%
[1]; HEK293, run 0605-30 min, read-out: survival rate (inhibition effect)
  viability at 72 h, 10 µM: 76.8%
[1]; HEK293, run 0607-30 min, read-out: survival rate (inhibition effect)
  viability at 72 h, 10 µM: 76%
[1]; HEK293, run 0609-30 min, read-out: survival rate (inhibition effect)
  viability at 72 h, 10 µM: 67.8%
[1]; summary, kidney cell, read-out: Inhibitory effect
  viability at 72 h, 10 µM: 71.4%
[2]; [6]
  viability at 10 µM: 63.8%
[2]; run 0524-10 min, read-out: survival rate (inhibition effect)
  viability at 10 µM: 52.6%
[2]; run 0526-10 min, read-out: survival rate (inhibition effect)
  viability at 10 µM: 78.3%
[2]; run 0529-10 min, read-out: survival rate (inhibition effect)
  viability at 10 µM: 51%
[2]; run 0531-10 min, read-out: survival rate (inhibition effect)
  viability at 10 µM: 73.4%
[3]; BEAS-2B, average of 4 tests, read-out: survival rate (inhibition effect), Average
  viability at 72 h, 10 µM: 98.6%
[3]; BEAS-2B, run 0512-10 min, read-out: survival rate (inhibition effect)
  viability at 72 h, 10 µM: 103%
[3]; BEAS-2B, run 0515-10 min, read-out: survival rate (inhibition effect)
  viability at 72 h, 10 µM: 96.4%
[3]; BEAS-2B, run 0517-10 min, read-out: survival rate (inhibition effect)
  viability at 72 h, 10 µM: 94.6%
[3]; summary, pulmonary epithelial cell line, read-out: Inhibitory effect
  viability at 72 h, 10 µM: 98.6%
[4]; [6]
  viability at 10 µM: 58.2%
[4]; run 0602-30 min, read-out: survival rate (inhibition effect)
  viability at 10 µM: 42.1%
[4]; run 0605-10 min, read-out: survival rate (inhibition effect)
  viability at 10 µM: 52.6%
[4]; run 0607-10 min, read-out: survival rate (inhibition effect)
  viability at 10 µM: 41.1%
[4]; run 0609-10 min, read-out: survival rate (inhibition effect)
  viability at 10 µM: 97%
[5]; [7]
  Tumor volume growth, average: −8.333 mm3
  volume, average: 63.333 mm3
[5]; [8]
  longest length: 6 mm and 4 mm
  width: 6 mm and 5 mm and 4 mm
[5]; [9]
  Tumor volume growth, average: 113.1667 mm3
  volume, average: 113.1667 mm3
[5]; [10]
  Tumor volume growth: 87.5 mm3 and 144 mm3 and 108 mm3
  longest length: 7 mm and 8 mm and 6 mm
  volume: 87.5 mm3 and 144 mm3 and 108 mm3
  width: 5 mm and 6 mm
[5]; [11]
  Tumor volume growth, average: −18.167 mm3
  volume, average: 71.667 mm3
[5]; [12]
  longest length: 6 mm and 4 mm
  width: 6 mm and 4 mm and 5 mm
[5]; [13]
  Tumor volume growth, average: −4.167 mm3
  volume, average: 109 mm3
[5]; [14]
  longest length: 6 mm and 7 mm
  volume: 75 mm3 and 126 mm3
  width: 5 mm and 6 mm
[5]; [15]
  Tumor volume growth, average: −19.167 mm3
  volume, average: 89.833 mm3
[5]; [16]
  longest length: 7 mm
  width: 6 mm and 4 mm and 5 mm
[5]; [17]
  Tumor volume growth, average: 0 mm3
  volume, average: 0 mm3
[5]; [18]
  Tumor volume growth: 0 mm3
  longest length: 0 mm
  volume: 0 mm3
  width: 0 mm
[5]; [19]
  Tumor volume growth, average: 78.5 mm3
  volume, average: 78.5 mm3
[5]; [20]
  longest length: 6 mm and 8 mm and 7 mm
  width: 4 mm and 5 mm
[5]; [21]
  Tumor volume growth, average: −13.33 mm3
  volume, average: 0 mm3
[5]; [22]
  longest length: 0 mm
  volume: 0 mm3
  width: 0 mm
[5]; [23]
  Tumor volume growth, average: −25.8333 mm3
  volume, average: 52.67 mm3
[5]; [24]
  longest length: 6 mm and 5 mm and 7 mm
  width: 4 mm and 3 mm and 5 mm
[5]; [25]
  Tumor volume growth, average: −39.33 mm3
  volume, average: 13.333 mm3
[5]; both low dose and high dose, FIG. 2
  inhibition effect on tumor cells: significant inhibition effect
[5]; both low dose and high dose, FIG. 3
  Tumor volume growth: effectively slow down the tumor volume growth
[5]; high doses, FIG. 3
  inhibition of tumor growth, high doses compared with low: better effect to inhibit tumor growth
